Source: PMC7589326, “Synthesis and Pharmacological Evaluation of Fluorinated Quinoxaline‐Based κ‐Opioid Receptor (KOR) Agonists Designed for PET Studies” (Chemmedchem, 2020)
Read-outs that look alike come from different tables or passages of the source.

Assays:
[1] = target: T1, σ2 receptor (Rattus norvegicus, UniProt Q5U3Y7); assay: biochemical; format: binding; settings: for inhibition at 1 µM: read-out: % inhibition at 1 μM σ2 [3H]DTG
T1 construct: tissue Harlan-Winkelmann, Borchen, Germany; host or cells: rat liver membrane homogenate
T1 sequence (Q5U3Y7 1-176): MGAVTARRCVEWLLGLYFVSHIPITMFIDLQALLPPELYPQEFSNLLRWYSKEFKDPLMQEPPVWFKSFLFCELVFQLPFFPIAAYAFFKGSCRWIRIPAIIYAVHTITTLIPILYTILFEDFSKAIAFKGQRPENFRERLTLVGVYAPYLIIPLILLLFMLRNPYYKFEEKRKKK

[2] = target: T2, σ1 receptor (Cavia porcellus, UniProt Q60492); assay: biochemical; format: binding, guinea pig; settings: read-out: % inhibition at 1 μM σ1 (+)-[3H]pentazocine
T2 construct: Membrane preparations from guinea pig brain were used in the MOR and σ1 assay; tissue Harlan-Winkelmann, Borchen, Germany; host or cells: guinea pig brain membrane homogenate
T2 sequence (Q60492 whole entry): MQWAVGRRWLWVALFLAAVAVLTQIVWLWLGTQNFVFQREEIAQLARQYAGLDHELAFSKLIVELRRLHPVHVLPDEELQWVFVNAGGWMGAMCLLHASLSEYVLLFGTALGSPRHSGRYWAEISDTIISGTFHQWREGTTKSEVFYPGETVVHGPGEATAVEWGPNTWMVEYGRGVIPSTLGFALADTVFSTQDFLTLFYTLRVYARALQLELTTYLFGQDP

[3] = target: T3, DOR (Rattus norvegicus, UniProt P33533); assay: biochemical; format: binding; settings: for inhibition at 1 µM: read-out: % inhibition at 1 μM DOR [3H]DPDPE
T3 construct: preparations from rat brain were employed in the DOR assay; tissue Harlan-Winkelmann, Borchen, Germany; host or cells: rat brain (Sprague Dawley) membrane homogenate
T3 sequence (P33533 whole entry): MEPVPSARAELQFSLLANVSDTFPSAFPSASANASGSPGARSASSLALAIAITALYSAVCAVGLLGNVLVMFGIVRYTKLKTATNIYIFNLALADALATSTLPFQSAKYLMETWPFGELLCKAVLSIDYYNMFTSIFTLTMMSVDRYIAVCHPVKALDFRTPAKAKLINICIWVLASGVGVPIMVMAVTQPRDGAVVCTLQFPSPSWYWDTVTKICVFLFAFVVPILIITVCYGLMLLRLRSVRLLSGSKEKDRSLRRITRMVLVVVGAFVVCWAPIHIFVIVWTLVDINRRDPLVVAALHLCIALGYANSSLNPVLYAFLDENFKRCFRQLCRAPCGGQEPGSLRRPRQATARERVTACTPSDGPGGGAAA

[4] = target: T4, KOR (Cavia porcellus, UniProt P41144); assay: biochemical; format: binding, guinea pig
T4 construct: The thawed guinea pig brain membrane preparation (about 100 μg of the protein) was incubated; tissue Harlan-Winkelmann, Borchen, Germany; host or cells: guinea pig brain membrane homogenate
T4 sequence (P41144 whole entry): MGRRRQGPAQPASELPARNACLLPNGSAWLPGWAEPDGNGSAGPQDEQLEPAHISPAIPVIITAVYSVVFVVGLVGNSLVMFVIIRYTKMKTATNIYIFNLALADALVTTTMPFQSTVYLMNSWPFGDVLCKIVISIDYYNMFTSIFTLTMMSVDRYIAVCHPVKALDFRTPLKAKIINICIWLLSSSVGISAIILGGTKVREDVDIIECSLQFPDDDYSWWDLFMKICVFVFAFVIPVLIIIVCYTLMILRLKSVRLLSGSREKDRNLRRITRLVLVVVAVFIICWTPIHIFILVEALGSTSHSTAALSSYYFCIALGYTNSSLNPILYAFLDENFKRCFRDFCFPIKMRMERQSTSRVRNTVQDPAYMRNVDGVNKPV

[5] = target: T5, MOR (Cavia porcellus, UniProt A0ACM8Q262); assay: biochemical; format: binding, guinea pig; settings: for inhibition at 1 µM: read-out: % inhibition at 1 μM MOR [3H]DAMGO
T5 sequence (A0ACM8Q262 1-400): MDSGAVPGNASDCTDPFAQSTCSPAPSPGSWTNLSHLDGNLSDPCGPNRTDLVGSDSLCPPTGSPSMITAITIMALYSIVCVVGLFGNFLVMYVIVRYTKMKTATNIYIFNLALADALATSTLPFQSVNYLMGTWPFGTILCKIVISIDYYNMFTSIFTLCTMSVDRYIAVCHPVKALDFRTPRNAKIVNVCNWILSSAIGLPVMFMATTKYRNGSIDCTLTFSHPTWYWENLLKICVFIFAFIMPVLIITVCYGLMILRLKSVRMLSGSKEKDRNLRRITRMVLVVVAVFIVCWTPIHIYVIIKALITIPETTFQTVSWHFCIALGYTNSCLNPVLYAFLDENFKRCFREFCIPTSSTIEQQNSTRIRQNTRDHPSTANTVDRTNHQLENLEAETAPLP

[6] = test system: DCs from KOR-deficient mice; format: cell-based, mouse
[7] = test system: human DCs; format: cell-based
[8] = test system: mouse DCs (wild-type); format: cell-based
[9] = test system: mouse T cells (wild-type); format: cell-based
[10] = target: T6, KOR (Homo sapiens, UniProt P41145); assay: cell-based; design: expressed in transfected cells; host or cells: HEK 293T (ATCC CRL-11268)
Target sequence in this assay (P41145 whole entry, the tested form may be a part): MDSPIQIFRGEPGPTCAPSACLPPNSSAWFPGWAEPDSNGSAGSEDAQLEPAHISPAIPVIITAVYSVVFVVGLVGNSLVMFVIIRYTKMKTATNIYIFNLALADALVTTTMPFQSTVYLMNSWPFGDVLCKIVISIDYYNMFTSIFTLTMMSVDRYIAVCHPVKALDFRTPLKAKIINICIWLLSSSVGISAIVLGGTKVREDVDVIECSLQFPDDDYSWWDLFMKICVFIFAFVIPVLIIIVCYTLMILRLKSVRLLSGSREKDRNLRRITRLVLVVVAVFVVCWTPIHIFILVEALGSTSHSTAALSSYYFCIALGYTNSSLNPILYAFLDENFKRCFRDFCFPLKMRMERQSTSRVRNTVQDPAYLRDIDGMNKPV

[11] = target: T6, KOR; assay: cell-based; design: expressed in transfected cells; host or cells: HTLA cells (stably expressing TEV-fused β-arrestin2)
Target sequence in this assay (P41145 whole entry, the tested form may be a part): as above
Target sequence in this assay (P32121 whole entry partner, the tested form may be a part): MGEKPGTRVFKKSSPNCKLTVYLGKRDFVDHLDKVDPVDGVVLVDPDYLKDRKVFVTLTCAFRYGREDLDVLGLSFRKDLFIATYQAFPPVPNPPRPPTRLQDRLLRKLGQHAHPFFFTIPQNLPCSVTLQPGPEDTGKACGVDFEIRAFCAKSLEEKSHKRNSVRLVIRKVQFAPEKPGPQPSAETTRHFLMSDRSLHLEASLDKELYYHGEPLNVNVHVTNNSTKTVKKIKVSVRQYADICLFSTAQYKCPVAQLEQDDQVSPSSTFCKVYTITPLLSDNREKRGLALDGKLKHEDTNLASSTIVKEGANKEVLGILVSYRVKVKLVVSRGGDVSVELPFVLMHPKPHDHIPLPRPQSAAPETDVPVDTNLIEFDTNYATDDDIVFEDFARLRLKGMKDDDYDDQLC

[12] = test system: human T cells; format: cell-based
[13] = test system: T cells from KOR-deficient mice; format: cell-based, mouse
[14] = target: T5, MOR; settings: cited from earlier work
[15] = target: T2, σ1 receptor; settings: cited from earlier work
[16] = target: T1, σ2 receptor; settings: cited from earlier work
[17] = Stability in human serum (radio-HPLC); format: in vitro ADME; settings: 90 min, 37 °C
Method: (§1) Enzymes present in blood serum could be able to transform the radioactive PET tracer [^18F]‐2. Therefore, the blood serum stability of [^18F]‐2 was investigated before testing the tracer in vivo. [^18F]‐2 was incubated with mouse and human serum for 90 min at 37 °C.
(§2) The serum stability of radioligands [^18F]‐2 and [^18F]‐14c was evaluated by incubation in mouse or human serum at 37 °C for up to 90 min. An aliquot of formulated [^18F]‐2 or [^18F]‐14c (20 μL, ca. 6.6 MBq and ca.10 MBq, respectively) was added to a sample of mouse serum (200 μL) or human serum (200 μL), and the mixtures were incubated at 37 °C. Samples of 20 μL each were taken after periods of 10, 30, 60 and 90 min and ice‐cold DNA‐grade CH3CN (100 μL) were added. After centrifugation for ≥5 min, the supernatant was analyzed by analytical radio‐HPLC B, method B.

[18] = In vivo biodistribution, small animal PET in C57BL/6 mice; design: species or system mouse
Method: Next, the distribution of the PET tracer [^18F]‐2 in mice was investigated. For this purpose, [^18F]‐2 was injected into 15‐week‐old C57BL/6 mice. […] Already after 2 min the radioactivity was almost completely found in liver, kidneys and bladder. In the liver, the radioactivity remained almost constant over the period of 90 min (Figure 6). Besides a transient local increase in radioactivity in the submandibular and harderian glands, no significant accumulation of [^18F]‐2 in non‐excreting organs such as heart, lung and muscles as indicator for unspecific binding could be detected.
Adult C57BL/6 mice (n=2 male, 15 weeks, 28 g for [^18F]‐2; n=2, male, 10 weeks, 25 g for [^18F]‐14c) were anesthetized by isoflurane/O2 and one lateral tail vein was cannulated BY using a 27 G needle connected to 15 cm polyethylene catheter tubing. Radiotracers (∼500 kBq/g bodyweight, 15 MBq) were injected as a bolus (50 μL compound flushed with 100 μL saline) via the tail vein and subsequent PET scanning was performed.
Small Animal PET Scanning. PET experiments were carried out using a submillimeter high resolution (0.7 mm full width at half‐maximum) small animal scanner (32 module quadHIDAC, Oxford Positron Systems Ltd., Oxford, UK) with uniform spatial resolution (<1 mm) over a large cylindrical field (165 mm diameter, 280 mm axial length). List‐mode data were acquired for 90 min and reconstructed into dynamic time frames using an iterative reconstruction algorithm. Subsequently, the scanning bed was transferred to the computed tomography (CT) scanner (Inveon, Siemens Medical Solutions, U.S.), and a CT acquisition with a spatial resolution of 80 μm was performed for each mouse. Reconstructed image data sets were coregistered based on extrinsic markers attached to the multimodal scanning bed and the in‐house developed image analysis software MEDgical. Three‐dimensional volumes of interest (VOIs) were defined over the respective organs in CT data sets, transferred to the coregistered PET data, and analyzed quantitatively. Regional uptake was calculated as percentage of injected dose by dividing counts per milliliter in the VOI by total counts in the mouse multiplied by 100 (%ID/mL).

[19] = Distribution coefficient logD7.4, shake flask method with radioligand; format: physicochemical
Method: The distribution coefficient at pH 7.4 (logD7.4) was determined by a shake flask method using the radioligand [^18F]‐2. After distribution of [^18F]‐2 between n‐octanol and phosphate buffered saline (pH 7.4) layers, the radioactivity in both layers was determined and set in ratio. According to this procedure, a logD7.4 value of 1.37±0.06 was determined indicating a moderate lipophilic compound, which should be able to penetrate into the central nervous system.
The lipophilicity of radioligands [^18F]‐2 and [^18F]‐14c was assessed by determination of the water n‐octan‐1‐ol distribution coefficient (logD) following a published procedure.57 In brief, approximately 3.2 MBq of radioligand [^18F]‐2 and approximately 0.3 MBq of radiotracer [^18F]‐14c, respectively, were mixed with equal amounts (0.6 mL) of phosphate buffered saline (PBS, pH 7.4) and n‐octan‐1‐ol. The resulting biphasic system was mixed vigorously for 3 min at room temperature and subsequently, the tubes were centrifuged (≥5 min). Then 400 μL of the n‐octan‐1‐ol layer was separated and 400 μL of PBS were added. The mixture was mixed vigorously for 10 min at room temperature followed by centrifugation of the tubes for≥5 min. Two samples of 100 μL of each layer were counted in a γ‐counter (2480 Automatic Gamma Counter Wizard^2, Perkin‐Elmer). The distribution coefficient was determined by calculating the ratio cpm(n‐octan‐1‐ol)/cpm(PBS) and expressed as logD 7.4 (log(cpmn‐octanol/cpmPBS)). Three independent experiments were performed in duplicate and data were provided as mean values ±standard deviation.

[20] = Stability in mouse serum (radio-HPLC); format: in vitro ADME; settings: 90 min, 37 °C
Method: as §1, §2

## CC(C)(C)OC(=O)N1CCN(C(=O)Cc2ccc(Cl)c(Cl)c2)[C@@H]2[C@@H](N3CC[C@H](O)C3)CCC[C@@H]21 (mixture of isomers) [12a, tert‐Butyl (4aR,5S,8aS)‐ and (4aS,5R,8aR)‐4‐[2‐(3,4‐dichlorophenyl)acetyl]‐5‐[(S)‐3‐hydroxypyrrolidin‐1‐yl]‐3,4,4 a,5,6,7,8,8 a‐octahydroquinoxaline‐1(2H)‐carboxylate]
[1]
  inhibition at 1 µM: 0%
[2]
  inhibition at 1 µM: 0%
[3]
  inhibition at 1 µM: 5%
[4]; Ki±SEM KOR [3H]U-69,593
  Ki: 16 ± 2 nM
[5]
  inhibition at 1 µM: 9%

## COC(=O)N1CCN(C(=O)Cc2ccc(Cl)c(Cl)c2)[C@@H]2[C@@H](N3CC[C@H](O)C3)CCC[C@@H]21 (mixture of isomers) [12c, Methyl (4aR,5S,8aS)‐ and (4aS,5R,8aR)‐4‐[2‐(3,4‐dichlorophenyl)acetyl]‐5‐[(S)‐3‐hydroxypyrrolidin‐1‐yl]‐3,4,4 a,5,6,7,8,8 a‐octahydroquinoxaline‐1(2H)‐carboxylate]
[1]
  inhibition at 1 µM: 5%
[6]
  anti-inflammatory effect (CD11c, IFN-γ) in DCs from KOR-deficient mice: completely abrogated
[7]
  expression of CD11c and production of IFN-γ in human DCs: reduced
[8]
  expression of maturation marker CD11c and IFN-γ production: significantly reduced
[9]
  expression of surface activation markers CD25, CD44 and CD69 and IFN-γ production: did not modulate the activation status
[2]
  inhibition at 1 µM: 0%
[10]
  EC50: 0.19 nM
[10]; HEK-293T, read-out: cAMP E max
  Emax: 100%
[11]
  EC50: 8.8 nM
[11]; HTLA, read-out: β-Arrestin-2 E max
  Emax: 82%
[3]
  Ki: 693 nM
[4]; Ki±SEM KOR [3H]U-69,593
  Ki: 9.2 ± 6 nM
[5]
  inhibition at 1 µM: 5%

## COC(=O)N1CCN(C(=O)Cc2ccc(Cl)c(Cl)c2)[C@@H]2[C@@H](N3CC[C@@H](F)C3)CCC[C@@H]21 (mixture of isomers) [14c, Methyl (4aR,5S,8aS)‐ and (4aS,5R,8aR)‐4‐[2‐(3,4‐dichlorophenyl)acetyl]‐5‐[(R)‐3‐fluoropyrrolidin‐1‐yl]‐3,4,4 a,5,6,7,8,8 a‐ octahydroquinoxaline‐1(2H)‐carboxylate]
[1]
  Ki: 962 nM
[6]
  anti-inflammatory effect (CD11c, IFN-γ) in DCs from KOR-deficient mice: completely abrogated
[7]
  expression of CD11c and production of IFN-γ in human DCs: reduced
[12]
  IL-10 induction: only slightly but not significantly induced
  expression of surface activation markers CD25 and CD69 and IFN-γ secretion: significantly reduce
[8]
  expression of maturation marker CD11c and IFN-γ production: significantly reduced
[9]
  anti-inflammatory cytokine IL-10 in cell cultures: significant upregulation
  expression of surface activation markers CD25, CD44 and CD69 and IFN-γ production: significantly reducing
[2]
  inhibition at 1 µM: 8%
[3]
  inhibition at 1 µM: 12%
[4]
  Ki: 0.82 ± 0.69 nM
  selectivity over the related MOR, DOR and σ receptors: more than 1000 fold
[5]
  inhibition at 1 µM: 0%
[13]
  expression of activation markers or cytokine release in T cells from KOR-deficient mice: did not result in an altered expression

## CC(C)(C)OC(=O)N1CCN(C(=O)Cc2ccc(Cl)c(Cl)c2)[C@@H]2[C@@H](N3CCCC3)CCC[C@@H]21 [1a]
[14]; read-out: Ki MOR [3H]DAMGO
  Ki: 260 nM
[15]
  % inhibition at 1 μM σ1 (+)-[3H]pentazocine: 12%
[16]
  % inhibition at 1 μM σ2 [3H]DTG: 16%

## COC(=O)N1CCN(C(=O)Cc2ccc(Cl)c(Cl)c2)[C@@H]2[C@@H](N3CCCC3)CCC[C@@H]21 [1c]
[14]
  % inhibition at 1 μM MOR [3H]DAMGO: 0%
[15]
  % inhibition at 1 μM σ1 (+)-[3H]pentazocine: 0%
[16]
  % inhibition at 1 μM σ2 [3H]DTG: 8%

## COC(=O)N1CCN(C(=O)Cc2ccc(Cl)c(Cl)c2)[C@@H]2[C@@H](N3CC[C@@H]([18F])C3)CCC[C@@H]21 [[^18F]‐14c, Methyl (4aR,5S,8aS)‐ and (4aS,5R,8aR)‐4‐[2‐(3,4‐dichlorophenyl)acetyl]‐5‐[(R)‐3‐[^18F]fluoropyrrolidin‐1‐yl]‐3,4,4 a,5,6,7,8,8 a‐octahydroquinoxaline‐1(2H)‐carboxylate]
[17]
  stability in human serum: high stability
[18]; 90 min after injection
  residual radioactivity in organs ex vivo (γ-counter): mainly present in the excretion organs and in the urine
[18]; C57BL/6 mice, intravenous injection
  radioactivity in the bones / defluorination: fast defluorination
[18]; C57BL/6 mice, intravenous injection, hepatic and renal pathways
  clearance from the body: fast
[19]; n-octanol / PBS pH 7.4
  concentration in the n-octanol layer relative to [18F]-2: 15 fold
[19]; n-octanol / phosphate buffered saline pH 7.4
  logD: 2.54 ± 0.22
[20]
  stability in mouse serum: high stability

## DAMGO [reference compound]
[5]; read-out: Kd-value of radioligand, MOR assay
  Kd: 0.57 nM
